Patent US20200247812A1 (Integral Biosciences Private Limited, priority 2018, published 2020)
Where a name gives a salt, the structure may show the parent alone.

How the values were obtained:
MDA_MB-231 = assay: Cell viability assay (resazurin), MDA_MB-231; assay type: cell-based; conditions: Homo sapiens, MDA-MB-231, 72-144 hr
Protocol: (§1) Different cell lines such as pancreatic, (MIA PaCa-2; ATCC®CRL-1420™ & and Panc-1; CRL-1469™), liver carcinoma (HepG2; ATCC® HB-8065™), lung epithelial carcinoma (A549; ATCC® CCL-185™) and others were seeded in their respective medium (DMEM, Cat #10569044, MEM, Cat #41090036; RPMI, Cat #22400089; all with 10% FBS, Gibco, ThermoFisher) at a cell count of 3000 cells per 100 μl per well in a 96 well edge plate (167425; ThermoFisher). Cells were allowed to grow at 37° C. for 24 hr in 5% CO2 (culture conditions) in a Nuaire incubator (humidified). Serially diluted compounds (100 μl) were added to the culture plate 24 hr later and the cultures were further incubated in culture conditions for specified time depending on doubling time of specific cell line (ranging from 72-144 hr). Experiment was terminated at the completion of incubation time with the drug by replacing the medium with 100 μl of 1 mM of resazurin (R7017; Sigma) prepared in respective culture medium and the plates were further incubated in culture conditions for 4 hr. Fluorescence was then measured using a multimodal plate reader (Biotek Synergy Neo) at an excitation wavelength of 535 nm and emission wavelength of 590 nm to obtain relative fluorescence units. Data analysis was done by subtracting the background fluorescence (only medium blank) value from each reading and then normalizing with the vehicle control (DMSO treated cells) to obtain percent survival/proliferation. Percent survival at different doses was used to calculate IC50 by fitting the curve to the “four-parameter variable slope logistic model” using Prism Graph Pad.

HepG2 = assay: Cell viability assay (resazurin), HepG2; assay type: cell-based; conditions: Homo sapiens, 72-144 hr
Protocol: as §1

MV-4-11 = assay: Cell viability assay (resazurin), MV-4-11; assay type: cell-based; conditions: Homo sapiens, MV4-11, 72-144 hr
Protocol: as §1

A427 = assay: Cell viability assay (resazurin), A427; assay type: cell-based; conditions: Homo sapiens, A-427, 72-144 hr
Protocol: as §1

THP1 = assay: Cell viability assay (resazurin), THP1; assay type: cell-based; conditions: Homo sapiens, THP-1, 72-144 hr
Protocol: as §1

HCT116 = assay: Cell viability assay (resazurin), HCT116; assay type: cell-based; conditions: Homo sapiens, HCT-116, 72-144 hr
Protocol: as §1

MCF7 = assay: Cell viability assay (resazurin), MCF7; assay type: cell-based; conditions: Homo sapiens, 72-144 hr
Protocol: as §1

ALK 5 = target: T1, ALK 5 (Homo sapiens, UniProt P36897); assay: In vitro kinase assay (ALK5 IC50, LanthaScreen Terbium labeled TR-FRET); assay type: biochemical; conditions: TGF-β kinase 6 nM, ATP 10 μM, read-out: Enzyme Activity ALK 5 IC50
T1 sequence (P36897 34-503): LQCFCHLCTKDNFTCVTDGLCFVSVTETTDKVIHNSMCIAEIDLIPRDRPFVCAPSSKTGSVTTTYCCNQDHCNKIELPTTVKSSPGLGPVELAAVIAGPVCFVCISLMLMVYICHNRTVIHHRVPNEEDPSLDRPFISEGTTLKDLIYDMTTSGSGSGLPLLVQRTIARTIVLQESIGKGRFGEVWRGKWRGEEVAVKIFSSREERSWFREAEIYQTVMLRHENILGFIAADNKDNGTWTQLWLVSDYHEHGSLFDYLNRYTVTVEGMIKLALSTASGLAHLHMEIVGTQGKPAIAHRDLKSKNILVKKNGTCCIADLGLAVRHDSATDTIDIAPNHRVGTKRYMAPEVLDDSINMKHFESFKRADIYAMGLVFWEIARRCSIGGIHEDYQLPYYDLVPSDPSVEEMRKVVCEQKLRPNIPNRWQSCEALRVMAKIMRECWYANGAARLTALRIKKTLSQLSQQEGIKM
Summary of the method: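 LanthaScreen Tb TR-FRET: ALK5 (6 nM) preincubated 10 min with 3-fold diluted compounds, then 10 μM ATP and 200 nM fluorescent PolyGT substrate added for 1 h at room temperature. Stopped with EDTA/Tb antibody; 520/495 nm emission read. IC50 from four-parameter fit versus DMSO and no-enzyme controls.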

[1] = tested on: phosphorylation of Smad-2 in THP-1 cells; assay: Inhibition of phosphorylation of Smad-2 in THP-1 cells (Phospho-Smad2 ELISA); assay type: cell-based
A549 = assay: Cell viability assay (resazurin), A549; assay type: cell-based; conditions: Homo sapiens, 72-144 hr
Protocol: as §1

AsPC-1 = assay: Cell viability assay (resazurin), AsPC-1; assay type: cell-based; conditions: Homo sapiens, ASPC1, 72-144 hr
Protocol: as §1

Panc-10.05 = assay: Cell viability assay (resazurin), Panc-10.05; assay type: cell-based; conditions: Homo sapiens, Panc1005, 72-144 hr
Protocol: as §1

human PBMC's = assay: Viability in CD3e/CD28 activated human PBMC's (resazurin); assay type: cell-based; conditions: 72 hr
Protocol: IC50 values of compounds for determining viability in CD3e/CD28 activated human PBMC's (hPBMC-34033, Cat # CC-2702; Lonza) cultured in LGM3 medium, Cat # CC #3211; Lonza). Human PBMC's (0.25×10^6 cells/well) were activated with Anti-human CD3e (0.5 μg/ml, coated overnight at 4° C.; Cat #16-0037-81, eBioscience) and then incubated with serial dilutions of compounds (3 fold, 8 point dose response starting at 30 μM) for 30 min at 37° C., 5% CO2 in an incubator (cell culture conditions) prior to treating them with Anti-human CD28 (0.25 μg/ml soluble; Cat #16-0289-81, eBiosciences). Human PBMC's were further incubated under cell culture conditions for 72 hr following which experiment was terminated by replacing the medium with 100 μl of 1 mM of resazurin (R7017; Sigma) prepared in culture medium and the plates were further incubated in culture conditions for 4 hr. Fluorescence was then measured using a multimodal plate reader (Biotek Synergy Neo) at an excitation wavelength of 535 nm and emission wavelength of 590 nm to obtain relative fluorescence units. Data analysis was done by subtracting the background fluorescence (only medium blank) value from each reading and then normalizing with the vehicle control (DMSO treated cells) to obtain percent survival/proliferation. Percent survival at different doses was used to calculate IC50 by fitting the curve to the “four-parameter variable slope logistic model” using Prism Graph Pad.

22Rv1 = assay: Cell viability assay (resazurin), 22Rv1; assay type: cell-based; conditions: Homo sapiens, 72-144 hr
Protocol: as §1

CCc1[nH]c(=O)c(-c2cc(Cl)ccc2F)cc1Nc1ccnc(NC(C)=O)c1 [Compound 1.70, N-(4-((5-(5-chloro-2-fluorophenyl)-2-ethyl-6-oxo-1,6-dihydropyridin-3-yl)amino)pyridin-2-yl)acetamide]
IC50 (MDA_MB-231): > 30 µM | IC50 (HepG2): 18.2 µM | IC50 (MV-4-11): 29.2 µM | IC50 (A427): > 30 µM | IC50 (THP1): > 30 µM | IC50 (HCT116): > 30 µM | IC50 (MCF7): > 30 µM | IC50 (ALK 5): ≤ 0.5 µM

CC(C)c1[nH]c(=O)c(-c2cc(Cl)ccc2F)cc1Nc1ccncc1C(=O)NC[C@H](C)O [Compound 1.5, (S)-4-((5-(5-chloro-2-fluorophenyl)-2-isopropyl-6-oxo-1,6-dihydropyridin-3-yl)amino)-N-(2-hydroxypropyl)nicotinamide]
% Inhibition of pSmad2 ([1]; 3 μg): 47.3% | % Inhibition of pSmad2 ([1]; 10 μg): 53.3% | IC50 (ALK 5): ≤ 0.5 µM

CC(=O)Nc1cc(Nc2cc(-c3cc(Cl)ccc3F)c(=O)[nH]c2C2CC2)ccn1 [Compound 1.69, N-(4-((5-(5-chloro-2-fluorophenyl)-2-cyclopropyl-6-oxo-1,6-dihydropyridin-3-yl)amino)pyridin-2-yl)acetamide]
IC50 (MDA_MB-231): 15.3 µM | IC50 (HepG2): 15.7 µM | IC50 (MV-4-11): 16.3 µM | IC50 (A427): > 30 µM | IC50 (THP1): 13 µM | IC50 (HCT116): > 30 µM | IC50 (MCF7): 18.7 µM | IC50 (ALK 5): ≤ 0.5 µM

CN(C)c1[nH]c(=O)c(-c2cc(Cl)ccc2F)cc1Nc1ccncc1C(N)=O [Compound 1.32, 4-((5-(5-chloro-2-fluorophenyl)-2-(dimethylamino)-6-hydroxypyridin-3-yl)amino)nicotinamide]
IC50 (MDA_MB-231): > 30 µM | % Inhibition of pSmad2 ([1]; 3 μg): 51.3% | % Inhibition of pSmad2 ([1]; 10 μg): 50.5% | IC50 (A427): > 30 µM | IC50 (A549): > 30 µM | IC50 (AsPC-1): > 30 µM | IC50 (Panc-10.05): > 30 µM | IC50 (HCT116): > 30 µM | IC50 (MCF7): > 10 µM | IC50 (ALK 5): ≤ 0.5 µM

CC(=O)Nc1cc(Nc2cc(-c3cc(Cl)ccc3F)c(=O)[nH]c2N(C)C)ccn1 [Compound 1.40, N-(4-((5-(5-chloro-2-fluorophenyl)-2-(dimethylamino)-6-oxo-1,6-dihydropyridin-3-yl)amino)pyridin-2-yl)acetamide]
IC50 (MDA_MB-231): 12.6 µM | IC50 (HepG2): 12.6 µM | IC50 (A427): 15.2 µM | IC50 (A549): 28.5 µM | IC50 (THP1): 6.09 µM | IC50 (Panc-10.05): 28.5 µM | IC50 (HCT116): 13.4 µM | IC50 (ALK 5): ≤ 0.5 µM

COC(=O)c1cnccc1Nc1cc(-c2cc(Cl)ccc2F)c(=O)[nH]c1N(C)C [Compound 1.29, methyl 4-((5-(5-chloro-2-fluorophenyl)-2-(dimethylamino)-6-hydroxypyridin-3-yl)amino)nicotinate]
IC50 (HCT116): > 30 µM | IC50 (ALK 5): 0.5 to 2 µM

C[C@@H](CO)NC(=O)c1cnccc1Nc1cc(-c2cc(Cl)ccc2F)c(=O)[nH]c1N(C)C [Compound 1.10, (S)-4-((5-(5-chloro-2-fluorophenyl)-2-(dimethylamino)-6-hydroxypyridin-3-yl)amino)-N-(1-hydroxypropan-2-yl)nicotinamide]
% Inhibition of pSmad2 ([1]; 3 μg): 36.7% | % Inhibition of pSmad2 ([1]; 10 μg): 45.1% | IC50 (human PBMC's): 24.5 µM | IC50 (ALK 5): ≤ 0.5 µM

CN(C)c1[nH]c(=O)c(-c2cc(Cl)ccc2F)cc1Nc1ccnc2[nH]ccc12 [Compound 1.12, 5-((1H-pyrrolo[2,3-b]pyridin-4-yl)amino)-3-(5-chloro-2-fluorophenyl)-6-(dimethylamino)pyridin-2-ol hydrochloride]
IC50 (MDA_MB-231): 2.75 µM | % Inhibition of pSmad2 ([1]; 3 μg): 51.6% | % Inhibition of pSmad2 ([1]; 10 μg): 48.4% | IC50 (HepG2): 2.64 µM | IC50 (human PBMC's): 18.2 µM | IC50 (A427): 3.1 µM | IC50 (22Rv1): 1.53 µM | IC50 (A549): 2.77 µM | IC50 (THP1): 0.635 µM | IC50 (AsPC-1): 1.82 µM | IC50 (Panc-10.05): 2.21 µM | IC50 (HCT116): 2.64 µM | IC50 (ALK 5): ≤ 0.5 µM

CC(C)c1[nH]c(=O)c(-c2cc(Cl)ccc2F)cc1Nc1ccnc(NC(=O)CCC(F)(F)F)c1 [Compound 1.46, N-(4-((5-(5-chloro-2-fluorophenyl)-2-isopropyl-6-oxo-1,6-dihydropyridin-3-yl)amino)pyridin-2-yl)-4,4,4-trifluorobutanamide]
IC50 (ALK 5): > 5 µM

CC(C)c1[nH]c(=O)c(-c2cc(Cl)ccc2F)cc1Nc1ccnc2ccncc12 [Compound 1.42, 5-((1,6-naphthyridin-4-yl)amino)-3-(5-chloro-2-fluorophenyl)-6-isopropylpyridin-2(1H)-one]
IC50 (ALK 5): 2 to 5 µM

Cc1cccc(-c2cc(Nc3ccncc3C(=O)NC[C@H](C)O)c(N(C)C)[nH]c2=O)n1 [Compound 1.27, (S)-4-((6′-(dimethylamino)-6-methyl-2′-oxo-1′,2′-dihydro-[2,3′-bipyridin]-5′-yl)amino)-N-(2-hydroxypropyl)nicotinamide]
IC50 (ALK 5): > 5 µM

CC(=O)Nc1cc(Nc2cc(-c3ccc(F)nc3)c(=O)[nH]c2C(C)C)ccn1 [Compound 1.51, N-(4-((6′-fluoro-6-isopropyl-2-oxo-1,2-dihydro-[3,3′-bipyridin]-5-yl)amino)pyridin-2-yl)acetamide]
IC50 (ALK 5): > 5 µM

C[C@@H](O)CNC(=O)c1cnccc1Nc1cc(-c2cc(Cl)ccc2F)c(=O)n2c1N(C)CC2 [Compound 1.24, (R)-4-((6-(5-chloro-2-fluorophenyl)-1-methyl-5-oxo-1,2,3,5-tetrahydroimidazo[1,2-a]pyridin-8-yl)amino)-N-(2-hydroxypropyl)nicotinamide]
IC50 (ALK 5): > 5 µM

CC(=O)Nc1cc(Nc2cc(-c3cccc(Cl)c3)c(=O)[nH]c2C(C)C)ccn1 [Compound 1.81, N-(4-((5-(3-chlorophenyl)-2-isopropyl-6-oxo-1,6-dihydropyridin-3-yl)amino)pyridin-2-yl)acetamide]
IC50 (ALK 5): ≤ 0.5 µM
